This note sets out measurements from paper PMC8887546, “Design and Synthesis of Brain Penetrant Glycopeptide Analogues of PACAP With Neuroprotective Potential for Traumatic Brain Injury and Parkinsonism” (Frontiers in drug discovery, 2022).

This experiment concerns Sprague Dawley rats, 6-OHDA lesion. The experiment can be described thus: Striatal dopamine content, HPLC-EC (study 2). The settings on record: more severe (40%) lesion, vs vehicle. Type of experiment: in vivo, rat. As for the experimental part:
Rats were treated with 2LS98Lac or saline (vehicle) as outlined in the Schemes in Figures 9A,B via intraperitoneal (i.p.) injection (15 mg/kg). All animals were made hemi-parkinsonian with unilateral, striatal 6-hydroxydopamine (Sigma Aldrich, St. Louis, MO) injections. After surgery, behavioral assessments were done at 2- and 4-weeks post-surgery. 24 h after the last test animals were either euthanized and whole brains were harvested for future biochemical analysis or perfused and brains collected for immunohistochemistry and stereological assessment of tyrosine hydroxylase-positive (TH+) cells remaining in the SNc. In study 1: n = 16 each group were included, and all underwent the behavioral analysis: n = 16, and for the stereology in the SNc, n = 8 each group was used. In study 2: n = 23 each group were included. […] In the 2LS98Lac group, one video at 4 weeks was lost, reducing n = 22 in this specific analysis, and for the stereology, 2 brains were damaged during processing and could not be included in the stereology of the SNc, therefore […]. For biochemical subanalyses, n = 8 each group. For the microglial morphology subanalysis n = 7 each group.
FIGURE 9 | Evaluation of neuroprotection of the PACAP glycopeptide 2LS98Lac in rat Parkinson’s disease models. (A) Scheme for study 1, using a mild PD lesion. (B) Scheme for study 2, using a moderate PD lesion. […]

As for `[2H]C([2H])([2H])C([2H])(C([2H])([2H])[2H])[C@]([2H])(NC(=O)[C@H](C)NC(=O)[C@H](C)NC(=O)[C@H](CC(C)C)NC(=O)[C@H](Cc1ccc(O)cc1)NC(=O)[C@H](CCCCN)NC(=O)[C@H](CCCCN)NC(=O)[C@@]([2H])(NC(=O)[C@H](C)NC(=O)[C@H](CC(C)C)NC(=O)[C@H](CCC(N)=O)NC(=O)[C@H](CCCCN)NC(=O)[C@H](CCCNC(=N)N)NC(=O)[C@H](Cc1ccc(O)cc1)NC(=O)[C@H](CCCNC(=N)N)NC(=O)[C@H](CO)NC(=O)[C@H](Cc1ccc(O)cc1)NC(=O)[C@H](CO)NC(=O)[C@H](CC(=O)O)NC(=O)[C@@H](NC(=O)[C@H](Cc1ccccc1)NC(=O)[C@@H](NC(=O)CNC(=O)[C@H](CC(=O)O)NC(=O)[C@H](CO)NC(=O)[C@@H](N)Cc1c[nH]cn1)[C@@H](C)CC)[C@@H](C)O)C([2H])(C([2H])([2H])[2H])C([2H])([2H])[2H])C(=O)N[C@@H](CC(C)C)C(=O)N[C@@H](CO[C@@H]1O[C@H](CO)[C@@H](O[C@@H]2O[C@H](CO)[C@H](O)[C@H](O)[C@H]2O)[C@H](O)[C@H]1O)C(N)=O` [Compound 2LS98Lac], the “Striatal DA content” value is recorded as “no significant difference”.
